The results in this text go back to US20200016163A1, “TREATMENT OF DEMENTIA WITH CANNABINOID AGONISTS” (priority 2017, published 2020).

“Also recorded” adds a separate entry of the source.

The subject of data set [1] is lesion of cholinergic cells of nucleus basalis magnocellularis in rats (model of irreversible Alzheimer-type dementia). Briefly: Barnes maze (spatial memory) in rats with 192 IgG-saporin lesion of the nucleus basalis magnocellularis, 1 round of training sessions. In kind it is in vivo, Sprague Dawley rats. To be noted: 5 administrations. The source says:
The animal model used is the lesion of cholinergic cells of nucleus basalis magnocellularis in rats to cause memory loss that is sustained over time. It is a recognized model of irreversible-type dementia, specifically of irreversible Alzheimer-type dementia.
(§1) More specifically, a bilateral lesion was generated in the nucleus basalis magnocellularis in the brain of male Sprague Dawley rats (male 150-200 g) by means of stereotaxic coordinates (bregma −1.5 mm anteroposterior, ±3 mm laterodorsal and −8 mm ventral from the surface of the cranium) by injecting toxin 192 IgG-saporin (Merck-Millipore. Ref:MAB390) (SAP, n=30) (135 ng/μl/hemisphere; 0.25 μl/min) dissolved in artificial cerebrospinal fluid (CSF, n=28) (148 mM NaCl, 2.7 mM KCl, […], 1.2 mM CaCl2.2H2O; pH 7.4 adjusted with 1 mM K2HPO4) and the same method was carried out for the lesion control group but in this case only CSF (1 μl/hemisphere) was injected. Finally, as control of the latter, another group of animals was used which only received the injection of the needle and no compound was administered (SHAM, n=7). To stabilize the lesion process, the animals were not handled for one week. […] The compound is dissolved in DMSO:Cremophor:saline according to ratio [1:1:18].
The test used to evaluate the cognitive deficit of these models was the Barnes maze, which measures spatial memory. It is a circular maze with 20 holes on the periphery and only one of them has an escape box. When the animal finds this box, it is returned to its cage. This method is performed four times a day for four days (16 training sessions). On the fifth day, the hole leading to the escape box is covered and the animal explores the maze for three minutes for the purpose of finding this hole (test). The time in the target quadrant will be evaluated in the test. This parameter indicates if the animal accurately remembers where the escape hole is located because it will spend more time in the quadrant containing said hole (target quadrant). This parameter was analyzed by means of SMART 3.0 video-tracking software. Compared to other types of behavioral tests that evaluate memory in rodents, this test has the advantage that there is no aversive stimulus with which effects relating to fear and anxiety may interfere, which thereby prevents confusing anxiolytic effects with cognitive enhancing effects.

The test system is the same in data set [2]. Briefly: Barnes maze in 192 IgG-saporin lesioned rats, 2 rounds of training sessions (second round with treatment). In kind it is in vivo, Sprague Dawley rats. To be noted: SAP* rats with previously shown deficit (SAP*+WIN); new escape hole, 0.5 mg/kg i.p. on 4 training days and test day from day 18. On the procedure: as §1
The test used to evaluate the cognitive deficit of these models was the Barnes maze, which measures spatial memory. It is a circular maze with 20 holes on the periphery and only one of them has an escape box. When the animal finds this box, it is returned to its cage. […] The time in the target quadrant will be evaluated in the test. […] This parameter was analyzed by means of SMART 3.0 video-tracking software. […]

Turning to `Cc1c(C(=O)NN2CCCCC2)nn(-c2ccc(Cl)cc2Cl)c1-c1ccc(Cl)cc1` [SR141716A], the “effect of CB1 antagonist co-administration on the WIN55,212-2 effect, time in the target quadrant, Barnes maze test” value in data set [1] (SAP-lesioned rats (SAP+W+SR), SR141716A 0.5 mg/kg together with WIN55,212-2 0.5 mg/kg i.p.) is listed as “reversing the effect produced by treatment with WIN55,212-2 alone”.
Regarding `Cc1c(C(=O)c2cccc3ccccc23)c2cccc3c2n1[C@H](CN1CCOCC1)CO3` [WIN55,212-2], the “effect on memory of a control rat (time in the target quadrant), Barnes maze test” value in data set [1] (CSF control rats (CSF+W3), 3 mg/kg i.p.) was “detrimental for memory”. The “time in the target quadrant, Barnes maze test, non-lesioned control group” value in data set [1] (CSF control rats (CSF+WIN), 0.5 mg/kg i.p. once daily) was “no effect”. Also, the “time in the target quadrant, Barnes maze test, high dose” value in data set [1] (SAP-lesioned rats (SAP+W3), 3 mg/kg i.p.) is listed as “behave like a control rat”. Also, the “time in the target quadrant (memory deficit), Barnes maze test” value in data set [1] (SAP-lesioned rats (SAP+WIN), 0.5 mg/kg i.p. once daily, one hour before training/test, 0.5 mg/kg) is reported as “had no memory deficits; also recorded: spends the most amount of time in the target quadrant”. For the same compound, in data set [2], the “ability to remember the escape hole (time in the target quadrant), Barnes maze test” value is “capable of remembering it”.
